Experimental data published in patent US10292991B2, “Small molecule therapeutic compounds that reduce the incidence of intracerebral hemorrhage and brain microhemorrhages” (St. Michaels Hospital, priority 2016, dated 2019).

Assays:
[1] = Spectrophotometer analysis of blood hemoglobin concentration (Drabkin's method); assay type: in vivo, C57BL/6 mice; conditions: 25 mg/kg or 100 mg/kg for 3 days, n=4; no statistical difference between groups
Method: Drabkin's reagent (Sigma Aldrich) was used for calorimetric quantification of hemoglobin concentration at 540 nm. C57BL/6 mice were randomly assigned to three groups (each n=4): Control, Low-dose ARM, and High-dose ARM. For ARM groups, three days of 25 mg/kg/day and 100 mg/kg/day ARM were administered for low and high dose, respectively. Blood from saphenous vein were collected at day 4 and tested for hemoglobin concentration using UV 3600 Shimadzu spectrophotometer. A standard curve was generated using a known standard solution of cyanmethemoglobin, and blood concentrations of Hb was compared to the standard curve.
To assess possible anemia effect from ARM treatment as some previous studies speculated, blood samples were tested for hemoglobin concentration after ARM treatment. Blood hemoglobin concentration was assessed using Drabkins' method. Spectrophotometer data was compared to a standard curve from standard cyanmethemoglobin concentrations. The control group received no drug. The Treatment Dose group received 3 days injection of low dose ARM (25 mg/kg), 4× Treatment Dose group received 3 days injection of high dose ARM (100 mg/kg).

[2] = tested on: Cdh5 - exon2 morpholino-induced hemorrhage in zebrafish; experiment: Cdh5 (VE-cadherin) morpholino-induced hemorrhage in zebrafish, rescue by drugs; assay type: in vivo, zebrafish (Danio rerio); conditions: result in words, no EC50
Method: Danieau buffer (58 mM NaCl, 0.7 mM KCl, 0.4 mM MgSO4, 0.6 mM Ca(NO3)2, 5.0 mM HEPES, pH 7.6) was used to dilute the MO solutions to 0.2 mM final concentration. Individual wells were placed on a 1.0% agarose plate, in which the embryos were positioned. Afterwards, the MO solution was injected through the cell yolk into embryos of 1 to 4 cell-stage. The injected quantities varied from 0.5 to 15 ng.
Panels A & B: Stable EC junctions are maintained by a Cdc42-dependent and VE-cadherin-mediated cell-cell adhesion. VE cadherins are found on the surfaces of EC cell-cell junctions. VE-cadherins are associated with β- and α-catenins at their cytoplasmic domains, which connect them to the actin-based cytoskeleton (blue circles). Cdc42 belongs to the Rho-family of small guanosine triphosphatases (GTPases), which are the main regulators of VE-cadherin-based cell-cell adhesion. The functions of hmgcrb, βPix, and pak2a in regulating junctional stability in zebrafish are shown. HNGCR mediated GGPP biosynthesis regulates Cdc42 prenylation. βPix is a GEF that increases CDC42 affinity for GTP. Pak2 is an effector of Cdc42, which regulates actin filament organization.
Suppression of VE-cadherin induces hemorrhage.

[3] = tested on: LPS-induced brain microbleeds in mice; experiment: LPS-induced microbleeding mouse model; assay type: in vivo, C57BL/6 mice
Description: An LPS-mediated micro bleeding model was created similar to that described in Lui et al (Liu S, Grigoryan M M, Vasilevko V et al. Comparative analysis of H&E and Prussian blue staining in a mouse model of cerebral microbleeds. J Histochem Cytochem 2014; 62:767-773). 9-10 week old C57BL/6 mice of both sexes were purchased from Charles River, and randomly assigned to control or treatment groups in equal numbers. LPS from Salmonella enterica (Sigma Aldrich, St Louis, Mo.) was reconstituted with PBS to a final concentration of 5 mg/ml. Both control (n=16) and drug treatment (n=16) groups received injections of 5 mg/kg LPS at times 0 and 24 hrs. The drug treatment group, further divided into high dose (n=4) and low dose (n=12), received intraperitoneal injections of artemether (ARM) (25 mg/kg for Low dose and 100 mg/kg for High dose) at time points −72, −48, −24, 0 and 24 hrs of LPS treatment. All mice were sacrificed at 48 hrs after the first LPS injection.
LPS-induced microbleeding model: All mice in the LPS study were deeply anesthetized with ketamine and xylazine and perfused through the left cardiac ventricle with NaCl, 0.9%, followed by 4% paraformaldehyde (PFA) in 1×PBS buffer and 2 mM Gadoteridol contrast agent for 24 hours. Each brain was transferred into a 1×PBS+0.02% sodium azide and 2 mM Gadoteridol contrast agent. Brains were kept in this immersion solution for 14 days before imaging to ensure proper contrast diffusion in the brain for magnetic resonance imaging (MRI) scan. […]
For the integrin ICH model, brains were taken out of the skull, cut at the mid-coronal position and assessed in a binary manner for whether or not there was any evidence of ICH. […]
Brains were scanned using 7T Burker MRI with 16-channel solenoid coils. […] Following the reconstruction of images and applying image distortion correction algorithms, all brains were processed and analyzed for total volume of brain and total volume of hemorrhage. Quantification was done using percentage of bleeding (normalized to each brain size). […] Lastly, quantification was done in a blinded fashion. […]

CO[C@H]1O[C@@H]2O[C@@]3(C)CC[C@H]4[C@H](C)CC[C@@H]([C@H]1C)[C@@]24OO3 [Artemether]
Anemia (blood hemoglobin concentration) [1]: did not cause anemia | Rescue of hemorrhage induced by Cdh5 - exon2 morpholino ([2]; listed as ARM): rescue was observed | Rescue of hemorrhage induced by Cdh5 - exon2 morpholino ([2]; listed as ARM (Sigma)): Rescue effect | Total number of microbleeds inside the brain (H&E slices) ([3]; LPS+ARM vs LPS, n=8, P<0.01): significantly reduced | Total surface microbleeds (stereomicroscope count) ([3]; LPS+ARM vs LPS, n=8, P<0.05): robust reduction | Reduction of bleeding (MRI, total microbleed volume normalized to brain volume) ([3]; vs model control group, n=8, P<0.05): about ⅔
